Common to all, as to format: physicochemical
Series [1] can be described thus: Contact angle of powder compacts against purified water (wettability). The settings on record: compacts of powders. From the text:
The two solutions were mixed and allowed to equilibrate to generate a water-soluble inclusion complex between danazol and HPβCD. The solution was then processed by SFL and freeze-dried in a tray lyophilizer. The solution was atomized directly into liquid nitrogen through an insulated polyetheretherketone (PEEK) nozzle with a 63.5 μm orifice at 5000 psi constant pressure supplied by an ISCO syringe pump. The atomized frozen powder was then collected by sieve filtration and freeze-dried. […] Measurement of the contact angle of compacts of the various samples investigated allowed for the determination of the wettability of the powders. […] A lower contact angle coincided with enhanced wettability of the powder in aqueous dissolution media. […] The two solutions were mixed to form a one-phase cosolvent solution. The solution was then processed by SFL and freeze-dried and fluidized in an atmospheric freeze-drying (ATMFD) chamber. […] The atomized frozen powder was then collected by sieve filtration and freeze-dried using a cryogenic atmospheric (ATMFD) fluidized bed apparatus. […] The microparticles are porous and have a high surface area. […] Measurement of the contact angle of compacts of the various samples investigated allowed for the determination of the wettability of the powders. […] A lower contact angle coincided with a better wettability of the powder in aqueous dissolution media. […]

Series [2] is described as follows: Particle size of powders (time-of-flight, AERO-[…]). As to the method:
(§1) An aliquot of 0.1 g bovine insulin was dissolved in 20 ml HCl (pH=2), the solution was then titrated by 0.1 N NaOH to pH 7.4. The feed solution was then atomized using an ISCO pump by spray freezing into liquid nitrogen. The nozzle used was polyetheretherketone tubing with a diameter of 63.5 μm. The flow rate was 14 ml/min at 4000 psi. The frozen particles were collected and dried in a tray lyophilizer.
The span index is used to described the polydispersity in a given particle size distribution and is defined as (D90-D10)/D50, where D10, D50, and D90 are the respective particle size at 10, 50, 90 percent cumulative percent undersize.

The nature of series [3]: Chemical stability of insulin: level of A-21 desamido insulin. The settings on record: stored at −4° C. Here is the method: as §1, with “lyophilizer. The resulting particles were highly porous. […] The SFL process decreased the level of covalent insulin dimer (Table 2). The mean particle size diameter as determined by time-of-flight measurement was 5.06 microns. SEM photographs reveal that the particle is an aggregate composed of small domains of insulin.” for “lyophilizer.”
(§2) The SFL insulin powder was prepared according to the procedure outlined in Example 1 with same formulation. The SFL insulin powder was stored at −4° C. The samples were taken out at 6, 12 and 24 weeks.

Series [4] in a line: Chemical stability of insulin: level of covalent insulin dimer. The settings on record: for percentage of covalent insulin dimer: stored at −4° C. As to the method: as §1, with “lyophilizer. The resulting particles were highly porous. […] The SFL process decreased the level of covalent insulin dimer (Table 2). The mean particle size diameter as determined by time-of-flight measurement was 5.06 microns. SEM photographs reveal that the particle is an aggregate composed of small domains of insulin.” for “lyophilizer.”
as §2

The nature of series [5]: BET specific surface area of powders.
Series [6] in a line: Dissolution of drug from powders in dissolution media (FeSSIF). The settings on record: 60 minutes. From the text: This media is used to simulate gastrointestinal conditions. FeSSIF is the dissolution media that the powders produced in the following examples are dispersed into to quantitate the amount of drug dissolved as a function of time.

The values that follow come from US6862890B2, “Process for production of nanoparticles and microparticles by spray freezing into liquid” (Board of Regents, University of Texas System, priority 2001, dated 2005).

For `C#C[C@]1(O)CC[C@H]2[C@@H]3CCC4=Cc5oncc5C[C@]4(C)[C@H]3CC[C@@]21C` [SFL Danazol Alone, danazol], the “Average Contact Angle ± S.D. against purified water” value worked out at 64.3 ± 1.1 ° in series [1] and 64.3 ° in series [1] (listed as danazol alone).
As for `NC(=O)N1c2ccccc2C=Cc2ccccc21` [CBZ, carbamazepine], the “Span Index (D90-D10)/D50” value in series [2] worked out at 2.94. For the same compound, the D10 in series [2] (time-of-flight, 10 percent cumulative undersize) is 15.56 μm. Besides, in series [2] (time-of-flight, 50 percent cumulative undersize), the D50 is recorded as 39.70 μm. The compound further displayed a D90 in series [2] (time-of-flight, 90 percent cumulative undersize) of 132.33 μm.
bovine insulin [Bulk insulin]: the “percentage of A-21 desamido” value in series [3] (12 weeks) came out at 2.61 percentage; in series [3] (24 weeks), 2.72 percentage; in series [3] (Initial), 2.46 percentage. Further, the “percentage of covalent insulin dimer” value in series [4] (12 weeks) was 1.18 percentage; in series [4] (24 weeks) it was 1.15 percentage; in series [4] (Initial) it was 0.5 percentage. The “Covalent Insulin Dimer (percent)” value in series [4] (Example 1, after SFL and lyophilization vs bulk) was 0.25%. The “Mean Particle Size” value in series [2] (time-of-flight) amounted to 14.24 μm.
As to `C#C[C@]1(O)CC[C@H]2[C@@H]3CCC4=Cc5oncc5C[C@]4(C)[C@H]3CC[C@@]21C` [Danazol], the BET surface area in series [5] turned out to be 0.52 m^2/g. Besides, in series [6], the “amount of danazol dissolved” value amounted to 21%.
